Assay results from patent US10710997B2, “Isoquinoline amide and isoquinoline amide-substituted compounds as mGluR4 allosteric potentiators, compositions, and methods of treating neurological dysfunction” (Vanderbilt University, priority 2016, dated 2020).

Tests used:
[1] = molecular target: T1, human mGluR4 (Homo sapiens, UniProt Q14833); assay: human mGluR4 potentiation assay, CHO cells transfected with human mGluR4, Ca2+-sensitive dye; assay type: cell-based; conditions: human mGlu4; read-out: hmGlu4 EC50
T1 construct: expressed in transfected cells; host or cells: CHO cells
T1 sequence (Q14833 33-912): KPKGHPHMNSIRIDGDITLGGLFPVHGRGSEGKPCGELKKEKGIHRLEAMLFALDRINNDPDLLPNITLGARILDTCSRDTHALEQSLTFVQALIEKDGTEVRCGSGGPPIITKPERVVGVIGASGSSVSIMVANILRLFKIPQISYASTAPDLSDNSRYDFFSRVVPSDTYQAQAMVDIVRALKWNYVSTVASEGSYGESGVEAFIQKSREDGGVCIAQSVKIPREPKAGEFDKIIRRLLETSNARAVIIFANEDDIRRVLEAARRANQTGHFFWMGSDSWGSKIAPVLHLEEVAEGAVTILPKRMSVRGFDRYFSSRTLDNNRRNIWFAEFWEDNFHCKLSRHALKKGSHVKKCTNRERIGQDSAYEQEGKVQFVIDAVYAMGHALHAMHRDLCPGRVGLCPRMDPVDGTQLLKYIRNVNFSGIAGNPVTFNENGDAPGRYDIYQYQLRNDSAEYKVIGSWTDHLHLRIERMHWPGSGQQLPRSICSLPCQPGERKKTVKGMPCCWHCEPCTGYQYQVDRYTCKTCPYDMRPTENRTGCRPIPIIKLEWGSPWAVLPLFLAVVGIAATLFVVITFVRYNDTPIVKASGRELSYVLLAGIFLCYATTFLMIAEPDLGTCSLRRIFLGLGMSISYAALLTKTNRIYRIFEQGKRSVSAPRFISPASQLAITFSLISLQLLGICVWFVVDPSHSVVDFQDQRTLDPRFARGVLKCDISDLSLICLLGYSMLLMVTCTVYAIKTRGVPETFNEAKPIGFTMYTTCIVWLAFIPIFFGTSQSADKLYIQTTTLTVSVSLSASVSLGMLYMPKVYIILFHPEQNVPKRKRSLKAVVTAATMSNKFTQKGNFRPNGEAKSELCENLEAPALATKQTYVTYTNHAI
Experimental: The disclosed compounds and compositions can be evaluated for their ability to act as a potentiator of metabotropic glutamate receptor activity, in particular mGluR4 activity, by any suitable known methodology known in the art. For example, Chinese Hamster Ovary (CHO) cells transfected with human mGluR4 or HEK cells co-transfected with rat mGluR4 and the G-protein regulated Inwardly Rectifying Potassium channel (GIRK) were plated in clear bottom assay plates for assay in a Hamamatsu FDSS Fluorometric Plate Reader. The cells were loaded with either a Ca2+-sensitive fluorescent dye or the thallium responsive dye and the plates were washed and placed into a suitable kinetic plate reader. For human mGluR4 assays, a fluorescence baseline was established for 3-5 seconds, the disclosed compounds were then added to the cells, and the response in cells was measured. Approximately two and a half minutes later, a concentration of mGluR4 orthosteric agonist (e.g. glutamate or L-AP4) eliciting approximately 20% (EC20) of the maximal agonist response was added to the cells, and the response was measured. Two minutes later, a concentration of mGluR4 agonist (e.g. glutamate or L-AP4) eliciting 80% (EC80) of the maximal agonist response was added to the cells, and the response was measured. For rat mGluR4/GIRK experiments, a baseline was established for approximately five seconds, disclosed compounds were added, and either an EC20 or EC80 concentration of agonist was added approximately two and one half minutes later. Potentiation of the agonist response of mGluR4 by the disclosed compounds was observed as an increase in response to the EC20 concentration of agonist in the presence of compound compared to the response to agonist in the absence of compound. Similarly, antagonism of the agonist response of mGluR4 by the disclosed compounds was observed as a decrease in response to the EC80 concentration of agonist in the presence of compound compared to the response to agonist in the absence of compound.
The above described assay operated in two modes. In the first mode, a range of concentrations of the disclosed compounds are added to cells, followed by a single fixed concentration of agonist. If the compound acts as a potentiatior, an EC50 value for potentiation and a maximum extent of potentiation by the compound at this concentration of agonist is determined by non-linear curve fitting. If the compound acts as a noncompetitive antagonist, an IC50 value is determined by non-linear curve fitting. In the second mode, several fixed concentrations of the disclosed compounds are added to various wells on a plate, followed by a range in concentrations of agonist for each concentration of disclosed compound. The EC50 values for the agonist at each concentration of compound are determined by non-linear curve fitting. A decrease in the EC50 value of the agonist with increasing concentrations of the sample compound (a leftward shift of the agonist concentration-response curve) is an indication of the degree of mGluR4 potentiation at a given concentration of the sample compound. A decrease in the maximal response of the agonist with increasing concentrations of the sample compounds, with or without a rightward shift in agonist potency, is an indication of the degree of noncompetitive antagonism at mGluR4. The second mode also indicates whether the sample compounds also affect the maximum response to mGluR4 to agonists.

[2] = in vitro DMPK: human intrinsic and predicted hepatic clearance; assay type: in vitro ADME; conditions: for Human CLINT: in vitro, unit assumed; for Human CLHEP: predicted human clearance, human hepatic blood flow 20 mL/min/kg
Excerpt: (§1) As the only drug that interact with mGlu4 is free drug, the compounds of the present invention have unexpectedly exceptional profiles as putative drug candidates.

[3] = in vitro DMPK: rat intrinsic and predicted hepatic clearance; assay type: in vitro ADME; conditions: for Rat CLINT: in vitro, unit assumed; for Rat CLHEP: predicted
Excerpt: as §1

[4] = free drug level (fu) in human plasma; assay type: in vitro ADME
Excerpt: as §1

[5] = free drug level (fu) in rat plasma; assay type: in vitro ADME
Excerpt: as §1

[6] = rat brain homogenate binding (BHB); assay type: in vitro ADME; conditions: read-out: Rat BHB fu
Excerpt: as §1

[7] = molecular target: mGlu4 (UniProt Q14833); conditions: read-out: mGlu4 PAM EC50

SMILES | EC50 [1] [nM] | Human CLINT [2] [mL/min/kg] | Human CLHEP [2] [mL/min/kg] | Rat CLINT [3] [mL/min/kg] | Rat CLHEP [3] [mL/min/kg] | fraction unbound [4] | fraction unbound [5] | fraction unbound [6] | EC50 [7] [nM]
CN(C(=O)c1nccc2cc(Nc3n[nH]c4cccnc34)ccc12)C1CC(F)(F)C1 [Compound 23] | – | – | – | – | – | – | – | – | 339
CN(C(=O)c1nccc2cc(Nc3n[nH]c4ncccc34)ccc12)C1CCOC1 (centres unmarked) [Compound 25] | – | – | – | – | – | – | – | – | 4370
CN(C(=O)c1nccc2cc(Nc3n[nH]c4ncccc34)ccc12)C1CC(F)(F)C1 [Compound 24] | – | – | – | – | – | – | – | – | 1240
CN(C(=O)c1nccc2cc(Nc3n[nH]c4cccnc34)ccc12)C1CCOC1 (centres unmarked) [Compound 26] | – | – | – | – | – | – | – | – | 1850
O=C(c1nccc2cc(Nc3n[nH]c4cccnc34)ccc12)N1CCCC(F)(F)C1 [Example 4] | 117 | 172 | 18.7 | 885 | 64.9 | 0.015 | 0.158 | 0.05 | –
CN(C(=O)c1nccc2cc(Nc3n[nH]c4ncccc34)ccc12)C1CC(F)C1 (centres unmarked) [Compound 22] | – | – | – | – | – | – | – | – | 1800
CN(C(=O)c1nccc2cc(Nc3n[nH]c4cccnc34)ccc12)C1CC(F)C1 (centres unmarked) [Compound 20] | – | – | – | – | – | – | – | – | 546

More lines, main results first:

EC50 [1] [nM] | Human CLINT [2] [mL/min/kg] | Human CLHEP [2] [mL/min/kg] | Rat CLINT [3] [mL/min/kg] | Rat CLHEP [3] [mL/min/kg] | fraction unbound [4] | fraction unbound [5] | fraction unbound [6] | SMILES | EC50 [7] [nM]
56.2 | 7.64 | 5.60 | 37 | 24.2 | 0.073 | 0.075 | 0.009 | O=C(NC1CC(F)(F)C1)c1nccc2cc(Nc3n[nH]c4ncccc34)ccc12 [Example 27] | –
25.5 | 10.2 | 6.86 | 26.7 | 19.3 | 0.059 | 0.089 | 0.082 | COC1CC(NC(=O)c2nccc3cc(Nc4n[nH]c5cccnc45)ccc23)C1 (centres unmarked) [Example 10] | –
9.91 | 9.01 | 6.30 | 32.8 | 22.3 | 0.09 | 0.076 | 0.01 | O=C(NC1CC(F)(F)C1)c1nccc2cc(Nc3n[nH]c4cccnc34)ccc12 [Example 9] | –
511 | 83.4 | 16.8 | 328 | 57.7 | 0.218 | 0.179 | 0.028 | O=C(c1nccc2cc(Nc3n[nH]c4ncccc34)ccc12)N1CCC(F)(F)CC1 [Example 28] | –
366 | 6.91 | 5.20 | 32.5 | 22.2 | 0.094 | 0.327 | 0.095 | O=C(c1nccc2cc(Nc3n[nH]c4cccnc34)ccc12)N1CC[C@H](F)C1 [Example 5] | –
21 | 6.61 | 5.03 | 32.4 | 22.2 | 0.11 | 0.107 | 0.02 | O=C(NC1CC(F)C1)c1nccc2cc(Nc3n[nH]c4cccnc34)ccc12 (centres unmarked) [Example 8] | –
59.9 | 0.63 | 0.61 | 2.82 | 2.71 | 0.188 | 0.229 | 0.068 | O=C(NC1CCOC1)c1nccc2cc(Nc3n[nH]c4cccnc34)ccc12 (centres unmarked) [Example 11] | –
57.7 | 87.4 | 16.9 | 568 | 62.3 | 0.094 | 0.168 | 0.055 | O=C(c1nccc2cc(Nc3n[nH]c4cccnc34)ccc12)N1CCC(F)(F)CC1 [Example 7] | –
268 | 7.44 | 5.49 | 230 | 53.7 | 0.134 | 0.328 | 0.085 | CS(=O)(=O)N1CCN(C(=O)c2nccc3cc(Nc4n[nH]c5cccnc45)ccc23)CC1 [Example 6] | –
